In US12209102B2, “Heterocyclic compounds and uses thereof” (Kumquat Biosciences Inc., priority 2022, dated 2025):

Key:
Format in all cases: biochemical
K-Ras G12D = molecular target: T1, K-Ras G12D (Homo sapiens, UniProt P01116, G12D); assay: HTRF resonance energy transfer assay, K-Ras G12D / SOS1 interaction; conditions: HTRF assay of Example 5; read-out: IC50 against K-Ras G12D
T1 construct: made in house; host or cells: E. coli BL21 (DE3)
Description: (§1) This assay can be also used to assess a selective inhibition or reduction of signaling output of a mutant Ras protein relative to a wildtype, or relative to a different mutant Ras protein. For example, the equilibrium interaction of wildtype Kras or K-Ras mutant (e.g., wildtype or a mutant thereof) with SOS1 (e.g., hSOS1) can be assessed as a proxy or an indication for a subject compound's ability to bind and inhibit Ras protein. HTRF assay detects from (i) a fluorescence resonance energy transfer (FRET) donor (e.g., antiGST-Europium) that is bound to GST-tagged K-Ras mutant to (ii) a FRET acceptor (e.g., anti-6His-XL665) bound to a His-tagged hSOS1.
(§2) The assay buffer can contain˜5 mM HEPES pH 7.4, ˜150 mM NaCl, ˜ 1 mM DTT, 0.05% BSA and 0.0025%(v/v) Igepal. A Ras working solution is prepared in an assay buffer containing typically a suitable amount of the protein construct (e.g., GST-tagged K-Ras mutant) and the FRET donor (e.g., antiGST-Eu(K) from Cisbio, France). A SOS1 working solution is prepared in an assay buffer containing suitable amount of the protein construct (e.g., His-hSOS1) and the FRET acceptor (e.g., anti-6His-XL665 from Cisbio, France). A suitable amount of the protein construct will depend on the range of activity or range of IC50 values being detected or under investigation. For detecting IC50 within a range of 500 nM, the protein constructs of the same range of molarity can be utilized.
(§3) A fixed volume of DMSO with or without test compound is transferred into a 384-well plate. Ras working solution is added to all wells of the test plate. SOS1 working solution is added to all wells except for those that are subsequently filled the inhibitor control solution. Upon incubation for about 10 minutes or longer, the fluorescence is measured with a M1000Pro plate reader (Tecan) using HTRF detection (excitation 337 nm, emission 1: 620 nm, emission 2: 665 nm). Compounds are tested in duplicates at different concentrations (for example, 10 μM, 2.5 μM, 0.63 μM, 0.16 μM, 0.04 μM, 0.01 μM test compound). The ratiometric data (i.e., emission 2 divided by emission 1) is used to calculate IC50 values against Ras using GraphPad Prism (GraphPad software). Following this general procedure, samples were tested with or without a subject compound disclosed herein including compounds exemplified in Table 1 to assess their abilities to inhibit a K-Ras mutant relative to another mutant or WT. Signaling output measured in terms of IC50 values can be obtained, a ratio of IC50 against one mutant relative to another mutant can be calculated. For instance, a selective reduction of K-Ras G12D signaling output can be evidenced by a ratio greater than one. In particular, a selective reduction of K-Ras G12D signaling relative to K-Ras WT signaling is evidenced as the ratio of IC50 (against K-Ras WT) to IC50 (against K-Ras G12D) is greater than 1.

K-Ras G12S = molecular target: T2, K-Ras G12S (Homo sapiens, UniProt P01116, G12S); assay: HTRF resonance energy transfer assay, K-Ras G12S / SOS1 interaction; conditions: HTRF assay of Example 5; read-out: IC50 against K-Ras G12S
T2 construct: made in house; host or cells: E. coli BL21 (DE3)
T2 sequence (P01116 1-188 isoform P01116-2 G12S): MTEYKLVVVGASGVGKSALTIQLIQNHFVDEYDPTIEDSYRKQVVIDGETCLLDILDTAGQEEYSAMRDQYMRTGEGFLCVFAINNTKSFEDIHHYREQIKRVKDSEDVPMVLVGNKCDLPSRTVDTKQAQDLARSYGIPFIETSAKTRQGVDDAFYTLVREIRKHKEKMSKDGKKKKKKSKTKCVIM
Description: as §1, §2, §3

K-Ras G12V = molecular target: T3, K-Ras G12V (Homo sapiens, UniProt P01116, G12V); assay: HTRF resonance energy transfer assay, K-Ras G12V / SOS1 interaction; conditions: HTRF assay of Example 5; read-out: IC50 against K-Ras G12V
T3 construct: made in house; host or cells: E. coli BL21 (DE3)
T3 sequence (P01116 1-188 isoform P01116-2 G12V): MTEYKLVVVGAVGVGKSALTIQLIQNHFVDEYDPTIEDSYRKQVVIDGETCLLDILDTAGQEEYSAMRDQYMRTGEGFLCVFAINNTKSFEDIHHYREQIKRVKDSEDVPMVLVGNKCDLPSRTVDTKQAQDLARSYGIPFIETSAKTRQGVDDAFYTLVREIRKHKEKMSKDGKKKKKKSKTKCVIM
Description: as §1, §2, §3

K-Ras WT = molecular target: T4, K-Ras WT (Homo sapiens, UniProt P01116); assay: HTRF resonance energy transfer assay, K-Ras WT / SOS1 interaction; conditions: HTRF assay of Example 5; read-out: IC50 against K-Ras WT
T4 construct: made in house; host or cells: E. coli BL21 (DE3)
T4 sequence (P01116 1-188 isoform P01116-2): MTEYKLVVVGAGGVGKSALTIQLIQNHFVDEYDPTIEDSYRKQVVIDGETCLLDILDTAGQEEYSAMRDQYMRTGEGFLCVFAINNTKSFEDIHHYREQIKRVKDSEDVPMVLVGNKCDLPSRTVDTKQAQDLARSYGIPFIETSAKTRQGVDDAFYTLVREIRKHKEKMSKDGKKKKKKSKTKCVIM
Description: as §1, §2, §3

T1 sequence (P01116 1-188 isoform P01116-2 G12D): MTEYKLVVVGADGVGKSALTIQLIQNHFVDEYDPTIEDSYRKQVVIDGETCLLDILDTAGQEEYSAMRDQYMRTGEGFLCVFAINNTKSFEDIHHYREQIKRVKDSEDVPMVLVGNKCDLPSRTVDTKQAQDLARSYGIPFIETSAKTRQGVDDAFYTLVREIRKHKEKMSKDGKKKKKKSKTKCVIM

Row | Compound | IC50 (K-Ras G12D) [nM] | IC50 (K-Ras G12S) [nM] | IC50 (K-Ras G12V) [nM] | IC50 (K-Ras WT) [nM]
1 | CC1(O)CCCC(N2CCOc3c(Cl)c(-c4ccc(F)c5sc(N)c(C#N)c45)c(F)c4nc(OC[C@@]56CCCN5C[C@H](F)C6)nc2c34)C1 (stereo partly drawn) [Compound 1069, 2-amino-4-(8-chloro-10-fluoro-2-(((2R,7aS)-2-fluorotetrahydro-1H-pyrrolizin-7a(5H)-yl)methoxy)-4-(3-hydroxy-3-methylcyclohexyl)-5,6-dihydro-4H-[1,4]oxazepino[5,6,7-de]quinazolin-9-yl)-7-fluorobenzo[b]thiophene-3-carbonitrile] | < 100 | < 100 | < 100 | < 100
2 | C[C@H]1COc2c(Cl)c(-c3ccc(F)c4sc(N)c(C#N)c34)c(F)c3nc(OC[C@@]45CCCN4C[C@H](F)C5)nc(c23)N1CC(F)F [Compound 783, 2-amino-4-((5S)-8-chloro-4-(2,2-difluoroethyl)-10-fluoro-2-(((2R,7aS)-2-fluorotetrahydro-1H-pyrrolizin-7a(5H)-yl)methoxy)-5-methyl-5,6-dihydro-4H-[1,4]oxazepino[5,6,7-de]quinazolin-9-yl)-7-fluorobenzo[b]thiophene-3-carbonitrile] | < 100 | – | – | –
3 | N#Cc1c(N)sc2c(F)ccc(-c3c(Cl)c4c5c(nc(OC[C@@]67CCCN6C[C@H](F)C7)nc5c3F)N(CC(F)F)[C@@H](CNC(=O)CC3COC3)CO4)c12 [Compound 766, N-(((5S)-9-(2-amino-3-cyano-7-fluorobenzo[b]thiophen-4-yl)-8-chloro-4-(2,2-difluoroethyl)-10-fluoro-2-(((2R,7aS)-2-fluorotetrahydro-1H-pyrrolizin-7a(5H)-yl)methoxy)-5,6-dihydro-4H-[1,4]oxazepino[5,6,7-de]quinazolin-5-yl)methyl)-2-(oxetan-3-yl)acetamide] | – | < 100 | < 100 | < 100
4 | C[C@H]1CN(CC2(N(C)C)CCC2)c2nc(OC[C@@]34CCCN3C[C@H](F)C4)nc3c(F)c(-c4ccc(F)c5sc(N)c(C#N)c45)c(Cl)c(c23)O1 [Compound 910, 2-amino-4-((6S)-8-chloro-4-((1-(dimethylamino)cyclobutyl)methyl)-10-fluoro-2-(((2R,7aS)-2-fluorotetrahydro-1H-pyrrolizin-7a(5H)-yl)methoxy)-6-methyl-5,6-dihydro-4H-[1,4]oxazepino[5,6,7-de]quinazolin-9-yl)-7-fluorobenzo[b]thiophene-3-carbonitrile] | < 100 | – | – | < 100
5 | N#Cc1c(N)sc2c(F)ccc(-c3c(Cl)c4c5c(nc(OC[C@@]67CCCN6C[C@H](F)C7)nc5c3F)N(C3CCOC3)[C@@H](C(F)F)CO4)c12 (stereo partly drawn) [Compound 620, 2-amino-4-((5R)-8-chloro-5-(difluoromethyl)-10-fluoro-2-(((2R,7aS)-2-fluorotetrahydro-1H-pyrrolizin-7a(5H)-yl)methoxy)-4-(tetrahydrofuran-3-yl)-5,6-dihydro-4H-[1,4]oxazepino[5,6,7-de]quinazolin-9-yl)-7-fluorobenzo[b]thiophene-3-carbonitrile] | < 100 | – | – | < 100
6 | N#Cc1c(N)sc2c(F)ccc(-c3c(Cl)c4c5c(nc(OC[C@@]67CCCN6C[C@H](F)C7)nc5c3F)N(CC(F)F)[C@H](C(F)F)CO4)c12 [Compound 1099, 2-amino-4-((S)-8-chloro-4-(2,2-difluoroethyl)-5-(difluoromethyl)-10-fluoro-2-(((2R,7aS)-2-fluorotetrahydro-1H-pyrrolizin-7a(5H)-yl)methoxy)-5,6-dihydro-4H-[1,4]oxazepino[5,6,7-de]quinazolin-9-yl)-7-fluorobenzo[b]thiophene-3-carbonitrile] | – | < 100 | < 100 | < 100

Now from value to compound:

Row | IC50 (K-Ras G12D) [nM] | IC50 (K-Ras G12S) [nM] | IC50 (K-Ras G12V) [nM] | IC50 (K-Ras WT) [nM] | Compound
7 | < 100 | < 100 | – | < 100 | N#Cc1c(N)sc2c(F)ccc(-c3c(Cl)c4c5c(nc(OC[C@@]67CCCN6C[C@H](F)C7)nc5c3F)N(CC(F)F)C(C3CCNC3)CO4)c12 (stereo partly drawn) [Compound 1034, 2-amino-4-(8-chloro-4-(2,2-difluoroethyl)-10-fluoro-2-(((2R,7aS)-2-fluorotetrahydro-1H-pyrrolizin-7a(5H)-yl)methoxy)-5-(pyrrolidin-3-yl)-5,6-dihydro-4H-[1,4]oxazepino[5,6,7-de]quinazolin-9-yl)-7-fluorobenzo[b]thiophene-3-carbonitrile]
8 | < 100 | – | < 100 | < 100 | N#Cc1c(N)sc2c(F)ccc(-c3c(Cl)c4c5c(nc(OC[C@@]67CCCN6C[C@H](F)C7)nc5c3F)N(CC(F)F)[C@@H](C3CCC3)CO4)c12 [Compound 692, 2-amino-4-((S)-8-chloro-5-cyclobutyl-4-(2,2-difluoroethyl)-10-fluoro-2-(((2R,7aS)-2-fluorotetrahydro-1H-pyrrolizin-7a(5H)-yl)methoxy)-5,6-dihydro-4H-[1,4]oxazepino[5,6,7-de]quinazolin-9-yl)-7-fluorobenzo[b]thiophene-3-carbonitrile]
9 | < 100 | < 100 | – | < 100 | CS(=O)(=O)NCC1COc2c(Cl)c(-c3ccc(F)c4sc(N)c(C#N)c34)c(F)c3nc(OC[C@@]45CCCN4C[C@H](F)C5)nc(c23)N1CC(F)F (stereo partly drawn) [Compound 867, N-((9-(2-amino-3-cyano-7-fluorobenzo[b]thiophen-4-yl)-8-chloro-4-(2,2-difluoroethyl)-10-fluoro-2-(((2R,7aS)-2-fluorotetrahydro-1H-pyrrolizin-7a(5H)-yl)methoxy)-5,6-dihydro-4H-[1,4]oxazepino[5,6,7-de]quinazolin-5-yl)methyl)methanesulfonamide]
10 | < 100 | < 100 | – | < 100 | C[C@H]1CN(C2CCN(C(=O)C(F)F)CC2)c2nc(OC[C@@]34CCCN3C[C@H](F)C4)nc3c(F)c(-c4ccc(F)c5sc(N)c(C#N)c45)c(Cl)c(c23)O1 [Compound 822, 2-amino-4-((6S)-8-chloro-4-(1-(2,2-difluoroacetyl)piperidin-4-yl)-10-fluoro-2-(((2R,7aS)-2-fluorotetrahydro-1H-pyrrolizin-7a(5H)-yl)methoxy)-6-methyl-5,6-dihydro-4H-[1,4]oxazepino[5,6,7-de]quinazolin-9-yl)-7-fluorobenzo[b]thiophene-3-carbonitrile]
11 | – | < 100 | < 100 | < 100 | N#Cc1c(N)sc2c(F)ccc(-c3c(Cl)c4c5c(nc(OC[C@@]67CCCN6C[C@H](F)C7)nc5c3F)N(CC(F)F)C(c3cncs3)CO4)c12 (stereo partly drawn) [Compound 789, 2-amino-4-(8-chloro-4-(2,2-difluoroethyl)-10-fluoro-2-(((2R,7aS)-2-fluorotetrahydro-1H-pyrrolizin-7a(5H)-yl)methoxy)-5-(thiazol-5-yl)-5,6-dihydro-4H-[1,4]oxazepino[5,6,7-de]quinazolin-9-yl)-7-fluorobenzo[b]thiophene-3-carbonitrile]
12 | < 100 | < 100 | – | < 100 | N#Cc1c(N)sc2c(F)ccc(-c3c(Cl)c4c5c(nc(OC[C@@]67CCCN6C[C@H](F)C7)nc5c3F)N(CC3(C(F)(F)F)CC3)CCO4)c12 [Compound 953, 2-amino-4-(8-chloro-10-fluoro-2-(((2R,7aS)-2-fluorotetrahydro-1H-pyrrolizin-7a(5H)-yl)methoxy)-4-((1-(trifluoromethyl)cyclopropyl)methyl)-5,6-dihydro-4H-[1,4]oxazepino[5,6,7-de]quinazolin-9-yl)-7-fluorobenzo[b]thiophene-3-carbonitrile]
